Results taken from US6194173A, “Binding proteins for phosphoinositides, GRP1 or general receptor 1 for phophoinositide” (priority 1999, dated 2001).
“Also recorded” adds a separate entry of the source.

Experiments:
GRP Sec7 homology domain = assay: Effect of phosphoinositides on ARF1 exchange catalyzed by the GRP Sec7 domain; assay type: biochemical, mouse; settings: 25 μM PtdIns(3,4,5)P3
GRP = target: T1, GRP (Mus musculus, UniProt O08967); assay: Effect of phosphoinositides on GRP-catalyzed ARF1 guanine nucleotide exchange; assay type: biochemical; settings: for stimulation of ARF1 exchange activity in the presence of GRP: 25 μM lipid, 0.15 μM GRP
T1 construct: GST (N, cleaved yes); made in house; host or cells: GRP from pGEX-4T; ARF1 from baculovirus-infected Sf-9 cells
T1 sequence (O08967 1-399): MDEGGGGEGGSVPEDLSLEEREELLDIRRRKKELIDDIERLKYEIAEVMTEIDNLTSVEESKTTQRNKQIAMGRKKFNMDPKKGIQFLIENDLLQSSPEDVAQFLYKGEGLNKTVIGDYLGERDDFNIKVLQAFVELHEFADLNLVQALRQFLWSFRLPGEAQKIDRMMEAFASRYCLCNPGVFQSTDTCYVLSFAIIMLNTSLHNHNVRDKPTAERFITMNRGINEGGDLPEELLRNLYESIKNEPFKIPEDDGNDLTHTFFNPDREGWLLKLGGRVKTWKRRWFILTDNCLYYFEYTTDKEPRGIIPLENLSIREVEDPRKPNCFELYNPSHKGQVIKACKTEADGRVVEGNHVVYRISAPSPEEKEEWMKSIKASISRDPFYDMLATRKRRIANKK

[1] = target: T2, proteins encoded by both brain and adipocyte cDNA clones (GRP) (Mus musculus, UniProt O08967); assay: Binding of 32P-labeled phosphoinositides to protein of isolated cDNA clones on nitrocellulose filters (library screen); settings: library screening conditions
T2 construct: lack four residues
T2 sequence (O08967 5-399): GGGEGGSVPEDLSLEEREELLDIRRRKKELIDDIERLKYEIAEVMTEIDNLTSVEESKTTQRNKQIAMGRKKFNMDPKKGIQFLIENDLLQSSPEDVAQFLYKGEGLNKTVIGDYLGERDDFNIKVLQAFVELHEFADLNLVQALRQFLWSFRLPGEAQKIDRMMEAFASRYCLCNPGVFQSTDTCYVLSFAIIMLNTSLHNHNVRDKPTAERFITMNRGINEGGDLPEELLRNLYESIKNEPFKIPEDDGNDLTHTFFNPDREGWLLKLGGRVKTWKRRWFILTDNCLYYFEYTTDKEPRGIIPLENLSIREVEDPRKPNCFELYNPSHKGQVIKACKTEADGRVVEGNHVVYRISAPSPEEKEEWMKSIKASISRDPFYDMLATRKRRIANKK

PH domain of GRP = target: T3, PH domain of GRP (Mus musculus, UniProt O08967); assay: Binding specificity of the GRP PH domain for 32P-labeled phosphoinositides (GST-PH on nitrocellulose); set-up: species or system murine; settings: GST-PH, 25,000 cpm lipid; relative to GST
T3 sequence (O08967 239-399): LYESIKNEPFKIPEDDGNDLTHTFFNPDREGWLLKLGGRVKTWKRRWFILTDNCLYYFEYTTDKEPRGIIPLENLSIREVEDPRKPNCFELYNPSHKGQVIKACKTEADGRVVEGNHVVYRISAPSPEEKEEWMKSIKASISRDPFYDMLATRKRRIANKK
Method: The 3'-phosphatidylinositol probes labeled at the 3' position were generated using GST-p110 PI3-kinase purified from recombinant bacculovirus infected Sf 9 cells, using either purified phosphatidylinositol phosphates or crude brain lipid. Briefly, 20 mg phospholipid in chloroform was dried under N2 and resuspended in […] of buffer containing Tris-HCl pH 7.4, EDTA 1 mM and incubated in […] phopsphorylation media containing 20 mM Tris-HCl pH 7.4, 100 mM NaCl, 10 mM MgCl2, 0.5 mM EGTA. 0.2 mM adenosine, GST-p110 and 5-10 mCi [g-^32 P]ATP (5 Ci/umol). The reaction was carried out for 2 h at room temperature, quenched by addition of 0.2 ml of 1M HCl, followed by 0.5 ml of chloroform:methanol (1:1). The organic phase containing phospholipids was washed 4 times with 0.4 ml of methanol:HCl (1: 1) and stored at -70° C. until use. Just before use, the lipid was dried under a stream of nitrogen with phosphatidyl serine corresponding to a final concentration of 20 mg/ml. The identities of the PI3-P, PI3,4-P2 and PI3,4,5-P3 were confirmed by TLC and HPLC analysis.
To generate the GST fusion proteins, PCR reactions using the primers: […] (SEQ ID NO:9) and […] (SEQ ID NO:10) for the GST-N construct, […] (SEQ ID NO:11) and […] (SEQ ID NO:12) for the GST-Sec7 construct, […] (SEQ ID NO:13) and […] (SEQ ID NO:14) for the GSTPH construct, and […] […] The filters were washed four times with 1 mL assay buffer and counted in a scintillation counter.
In order to determine whether PI(3,4,5)P3 binding could be localized to specific sequences within the GRP structure, GST fusion proteins containing either residues 239 to 399 (PH domain), residues 52 to 260 (Sec7 domain), or residues 5 to 71, full length GRP residues 5-399 were expressed in bacteria and purified on glutathione-conjugated beads. […] 150 pmol of the proteins were spotted on nitrocellulose filters, incubated with [^32 P]PI(3,4,5)P3 and the amount of bound lipid was determined as described. […] Nitrocellulose filters with GST-PH were incubated with 25,000 cpm of each of the phospholipids and the amount of bound lipid determined as described above. […]

maximal activation of GRP-catalyzed ARF1 exchange (GRP; 0.1 μM GRP1, 40 minutes): 3-4 fold | EC50 (GRP; 0.1 μM GRP1, 40 minutes, read-out: half maximal stimulation of GRP-catalyzed ARF1 [^35 S]GTPγS binding): ~1 µM | stimulation of ARF1 exchange activity in the presence of GRP (GRP; 0.1% cholate (high negative charge)): stimulated | binding of labeled phosphoinositide to the cDNA clone protein [1]: bound | binding of labeled phosphoinositide to the GRP PH domain (PH domain of GRP): specifically
Substance: Phosphatidylinositol (3,4,5)-Trisphosphate [PtdIns(3,4,5)P3]
effect on ARF exchange activity catalyzed by the GRP Sec7 homology domain (GRP Sec7 homology domain): no effect | stimulation of ARF1 exchange activity in the presence of GRP (GRP; 0.05% cholate and 0.05% CHAPS (low negative charge)): selectively stimulated; also recorded: Selectivity
